Like-named read-outs stand apart in the source and are kept apart here.
What was measured:
[1] = Exhaled breath HFA-134a levels after asthma inhaler administration (GC with MSD); format: in vivo, human; settings: n=1, Flovent HFA one puff per day for nine days, last ICS approximately 24 hr before sampling
[2] = as above; format: in vivo, human
Description: Study participants were randomly assigned to inhaled corticosteroid (ICS, Flovent HFA, 220 mcg, n=5) or short acting bronchodilator (Albuterol, Proventil HFA, n=5). Baseline exhaled breath sampling and standard lung function test were performed prior to the medication dispersion. After baseline measurements, the participants inhaled two puffs of either Flovent HFA (Glaxo Smith Kline) or Proventil HFA (Merck & CO., INC) using a spacer (AeroChamberPlus Flow-Vu, Monaghan). Breath sampling and lung function test were performed immediately after inhalation (<5 min), and at 2, 4, 6, 8, 24, and 48 hours post administration (see FIG. 3).
Exhaled breath samples were collected in evacuated electro-polished stainless steel canisters (volume=1.9 L). The analytic system used in this study is similar to the system described in Colman et al., 2001 (18). Briefly, 790 mL of the collected air sample is pre-concentrated in a stainless steel loop filled with glass beads and submerged in liquid nitrogen to remove the nitrogen, oxygen and argon present in the sample. The sample is re-vaporized using hot water (at approximately 80° C.) and split into five different column/detector combinations housed in three gas chromatographs (GCs) using UHP helium as the carrier gas: (1) DB-1 column (J&W; 60 m, 0.32 mm I.D., 1 μm film thickness) output to a flame ionization detector (FID); (2) DB-5 column (J&W; 30 m, 0.25 mm I.D., 1 vim film thickness) connected in series to a RESTEK 1701 column (5 m, 0.25 mm I.D., 0.5 μm film thickness) and output to an electron capture detector (ECD); (3) RESTEK 1701 column (60 m, 0.25 mm I.D., 0.50 μm film thickness) output to an ECD; (4) PLOT column (J&W GS-Alumina; 30 m, 0.53 mm I.D.) connected in series to a DB-1 column (J&W; 5 m, 0.53 mm I.D., 1.5 μm film thickness) and output to an FID; (5) DB-5 ms column (J&W; 60 m, 0.25 mm I.D., 0.5 μm film thickness) output to a quadrupole mass spectrometer detector (MSD, HP 5973). The MSD is set to operate in selected ion monitoring (SIM) mode with one ion chosen to quantify each compound in order to achieve the maximum selectivity and to avoid potential interferences. All gas chromatographs and detectors used in this study are manufactured by Hewlett Packard. The analytical system allows for the identification and quantification of different classes of volatile organic compounds (VOCs). […] Simultaneously, room air samples were also collected in the same location to quantify corresponding ambient levels of HFA-134a.

[3] = in vivo; cited from earlier work
[4] = 500 ppm of HFA-134a for two hours; cited from earlier work
[5] = Three compartment pharmacokinetic analysis of HFA elimination in breath after Flovent HFA; format: in vivo, human; settings: for half-life: human, exhaled breath, inhaled
Description: 24 hr, 36 hr, and 48 hr—post Flovent HFA administration (red and blue open circle). All sample collections were held open space. […] The calculated half-lives are 0.97, 20.7, and 442 minutes for subject #1 and 0.92, 27.6, and 355 minutes for subject #2.
As further disclosed in FIG. 5, the inventors re-defined the experiment and have performed a compartmental pharmacokinetic analysis of HFA elimination kinetics using HFA at 5 min, 7 min, 10 min, 15 min, 30 min, 1 hr, 2 hr, 3 hr, 4 hr, 6 hr, 8 hr, 12 hr. 24 hr, 36 hr, and 48 hr—post Flovent HFA administration. The HFA elimination could be modeled using three compartment pharmacokinetic analysis (Eq1). […] The elimination rate constant in each compartment, L1, L2, and L3, respectively are −0.1970, −0.0183, and −0.0013 for subject #1 and −0.1720, −0.0142, and −0.0018 for subject #2. The corresponding half-lives are 0.97, 20.7, and 442 minutes for subject #1 and 0.92, 27.6, and 355 minutes for subject #2.

[6] = metabolite of HFA-134a, only in some urine samples at trace levels; cited from earlier work
[7] = Albuterol subject #3 (Proventil HFA)

FCC(F)(F)F [HFA-134a, 1,1,1,2-tetrafluoroethane]
Baseline breath HFA level of symptomatic asthma subject on ICS [1]: 710 ppt | Exhaled HFA-134a levels at the 2-hr time point ([2]; 2 hr post inhaler administration, range over subjects): 28000-266000 pptv | HFA concentration in breath at 48 hr post typical asthma inhaler administration ([2]; 48 hr post): still detectable | Breath HFA-134a 48 hr post medication [2, 7]: 224 pptv | Breath HFA-134a right after medication [2, 7]: 6.2 ppmv | Breath HFA-134a at 48 hour time point ([2]; ICS subject #3 (Flovent HFA)): 287 pptv | Breath HFA-134a right after drug administration ([2]; ICS subject #3 (Flovent HFA)): 179 ppmv | Breath HFA-134a at 48 hour time point ([2]; ICS subject #4 (Flovent HFA)): 351 pptv | Breath HFA-134a right after drug administration ([2]; ICS subject #4 (Flovent HFA)): 48 ppmv | Time HFA can be measured in exhaled breath after a typical single inhalation ([2]; down to parts-per-trillion levels): at least 48 hours | HFA-134a breath levels immediately after inhalation ([2]; healthy controls, Flovent HFA or Proventil HFA, immediately after inhalation): 300×10^6 pptv | Time HFA is detectable above ambient levels following an inhalation ([2]; healthy participants): up to 24 hours | Exhaled breath HFA-134a levels right after inhalation (range over subjects) ([2]; healthy participants, two puffs of asthma inhaler, right after inhalation): 3-300 ppmv | Mean (SD) levels of HFA-134a in exhaled breath at 48-hr post inhaler administration ([2]; seven of ten healthy participants, 48 hr post): 260 (138) pptv | Breath HFA-134a levels at 48 hours post inhaler administration ([2]; similar to room HFA-134a levels, also at baseline): approximately 200 pptv | HFA-134a levels in blood samples [3]: below 10 % of the initially administered concentration | Decrease of exhaled breath HFA-134a compared with HFA-134a in plasma when exposure stopped [4]: almost an order of magnitude faster | Exhaled breath HFA-134a the day after the exposure [4]: not-detectable | half-life ([5]; subject #1, read-out: Half-life corresponding to L1): 0.97 min | half-life ([5]; subject #1, read-out: Half-life corresponding to L2): 20.7 min | half-life ([5]; subject #1, read-out: Half-life corresponding to L3): 442 min | half-life ([5]; subject #2, read-out: Half-life corresponding to L1): 0.92 min | half-life ([5]; subject #2, read-out: Half-life corresponding to L2): 27.6 min | half-life ([5]; subject #2, read-out: Half-life corresponding to L3): 355 min | Elimination rate constant L1 ([5]; subject #1, post Flovent HFA): −0.1970 reciprocal minutes | Elimination rate constant L2 ([5]; subject #1, post Flovent HFA): −0.0183 reciprocal minutes | Elimination rate constant L3 ([5]; subject #1, post Flovent HFA): −0.0013 reciprocal minutes | Elimination rate constant L1 ([5]; subject #2, post Flovent HFA): −0.1720 reciprocal minutes | Elimination rate constant L2 ([5]; subject #2, post Flovent HFA): −0.0142 reciprocal minutes | Elimination rate constant L3 ([5]; subject #2, post Flovent HFA): −0.0018 reciprocal minutes

O=C(O)C(F)(F)F [trifluoroacetic acid]
Trifluoroacetic acid detected in urine samples [6]: less than 0.0005 % of the administered dose

Source: US9581586B2, “Approach to asthma inhaler compliance using breath measurement of tetrafluoroethane” (The Regents of the University of California, priority 2014, dated 2017)
